Experimental findings from patent US6384224B2, “Certain 1-(2-naphthyl) and 1-(2-azanaphthyl)-4-(1-phenylmethyl) piperazines; dopamine receptor subtype specific ligands” (Neurogen Corporation, priority 1997, dated 2002) are described below.

Bounds are passed on as bounds.

In one data set the target is T1, D2 receptors (Chlorocebus aethiops, UniProt P52702).
T1 construct: expressed in transfected cells; host or cells: COS cells
Nature of the data set: D2 receptor binding, 3H-YM 09151-2 displacement, COS cell pellets. On the set-up: species or system African Green monkey. As to conditions: recombinant receptor in COS cells; 0.5 nM 3H-YM 09151-2. Here is the method: (§1) Pellets of COS cells containing recombinantly produced D2 or D4 receptors from African Green monkey are used for the assays. The sample is homogenized in 100 volumes (w/vol) of 0.05 M Tris HCl buffer at 4° C. and pH 7.4. The sample is then centrifuged at 30,000×g and resuspended and rehomogenized. The sample is again centrifuged as described above and the final tissue sample is frozen until use. The tissue is resuspended 1:20 (wt/vol) in 0.05 M Tris HCl buffer containing 100 mm NaCl.
(§2) Incubations are carried out at […] and contain 0.4 ml of tissue sample, 0.5 nM ^3H-YM 09151-2 (Nemonapride, cis-5-Chloro-2-methoxy-4-(methylamino)-N-(2-methyl-2-(phenylmethyl)-3-pyrrolidinyl)benzamide) and the compound of interest in a total incubation of 1.0 ml. Nonspecific binding is defined as that binding found in the presence of […]; without further additions, nonspecific binding is less than 20% of total binding. Binding characteristics for examples of compounds encompassed within Formula I for the D2 and D4 receptor subtypes are shown in Table 2 for rat striatal homogenates.

The subject of another data set is D4 receptors. Nature of the data set: D4 receptor binding, 3H-YM 09151-2 displacement, COS cell pellets. On the set-up: species or system African Green monkey. The conditions noted are these: for Ki: recombinant receptor in COS cells, 0.5 nM 3H-YM 09151-2; for IC50: evaluated in the assays described above (Example 7), read-out: interaction with the D4 receptor subtype (IC50). As for the experimental part: as §1, §2

T1 sequence (P52702 whole entry): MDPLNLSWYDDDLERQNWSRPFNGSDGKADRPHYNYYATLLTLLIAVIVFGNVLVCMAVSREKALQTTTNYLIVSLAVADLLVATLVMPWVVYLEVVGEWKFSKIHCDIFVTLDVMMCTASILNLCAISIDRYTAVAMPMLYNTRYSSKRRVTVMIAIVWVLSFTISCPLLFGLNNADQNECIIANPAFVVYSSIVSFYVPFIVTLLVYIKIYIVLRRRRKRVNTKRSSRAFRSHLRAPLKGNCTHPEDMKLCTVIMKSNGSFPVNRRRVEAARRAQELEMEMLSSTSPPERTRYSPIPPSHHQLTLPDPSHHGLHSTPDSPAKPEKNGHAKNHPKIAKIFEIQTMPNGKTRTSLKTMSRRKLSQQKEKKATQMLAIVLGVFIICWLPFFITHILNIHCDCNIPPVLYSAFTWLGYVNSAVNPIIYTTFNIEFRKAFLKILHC

For the compound `Cc1ccc(CN2CCN(c3ccc4ccccc4n3)CC2)cc1` [Compound 2], the Ki – broadly, the equilibrium dissociation constant of an inhibitor or competing ligand from its target – on D2 receptors was over 4000 nM; in the data set with D4 receptors it was 8 nM.
In the case of `COc1ccc2nc(N3CCN(Cc4ccc(Cl)cc4)CC3)cc(C)c2c1.Cl`, the melting point (usually the temperature of the solid-liquid transition) was 250 to 253 °C.
Still for that read-out and setting: as for `Br.Cc1cc(N2CCN(Cc3ccc(Cl)cc3)CC2)nc2c(C)cccc12`, the figure is 262 to 264 °C.
On the same count and under the same terms, as for `Cl.Clc1ccc(CN2CCN(c3ccc4ccccc4c3)CC2)cc1`, the figure is 216 to 218 °C; as for `Br.Clc1ccc(CN2CCN(c3ccc4ccccc4n3)CC2)cc1Cl`, 285 to 287 °C.
Consider `Br.FC(F)(F)c1ccc(CN2CCN(c3ccc4ccccc4n3)CC2)cc1`, for which the melting point is 271 to 273 °C.
For the compound `c1ccc(CN2CCN(c3ccc4ccccc4c3)CC2)cc1` [Comparative Compound A, 1-naphth-2-yl-4-benzylpiperazine, reference compound], in the data set on D4 receptors, the IC50 (usually the concentration at which inhibition is half-maximal) came out at 33 nM.
Still for that read-out and setting: the figure for `c1ccc(CN2CCN(c3ccc4ccccc4n3)CC2)cc1` [Comparative Compound B, 1-(quinolin-2-yl)-4-benzylpiperazine, reference compound] is 194 nM.
Compound `Cc1ccc(CN2CCN(c3ccc4ccccc4n3)CC2)cc1.Cl` came in with a melting point of 278 to 280 °C.
`Clc1ccc(CN2CCN(c3ccc4ccccc4c3)CC2)cc1` [Compound 6]: the Ki at D2 receptors was over 4000 nM; in the data set with D4 receptors, 9 nM.
Turning to `Br.Fc1ccc(CN2CCN(c3ccc4ccccc4c3)CC2)cc1`, the melting point was 244 to 246 °C.
With `Clc1ccc(CN2CCN(c3cnc4ccccc4n3)CC2)cc1.O=C(O)C(=O)O`, the melting point lay within 209 to 212 °C.
The same measure, in the same setting: the figure for `CC(C)c1ccc(CN2CCN(c3ccc4ccccc4n3)CC2)cc1.Cl` is 270 to 271 °C.
As to `Clc1ccc(CN2CCN(c3ccc4c(n3)CCCC4)CC2)cc1` [Compound 7], the inhibition constant (Ki) on D2 receptors was 1930 nM; in the data set with D4 receptors, 7 nM.
Consider `Br.Fc1ccccc1CN1CCN(c2ccc3ccccc3c2)CC1`, for which the melting point lay in the range of 239 to 240 °C.
Same read-out and setting: the figure for `Fc1cc(N2CCN(Cc3ccccc3)CC2)nc2ccccc12.O=C(O)C(=O)O` is 186 to 187 °C; for `FC(F)(F)Oc1ccc(CN2CCN(c3ccc4ccccc4n3)CC2)cc1` [Example 3(l), 1-(quinolin-2-yl)-4-(1-[4-trifluoromethoxyphenyl]methyl)piperazine] it is 109 to 110 °C; for `Br.Cc1nc2ccccc2nc1N1CCN(Cc2ccc(Cl)cc2)CC1` it is 293 to 295 °C.
Compound `Br.Cc1ccc(CN2CCN(c3ccc4ccccc4c3)CC2)cc1` displayed a melting point of 222 to 223 °C.
Same read-out and setting: the figure for `Br.c1ccc2nc(N3CCN(Cc4ccc5c(c4)OCO5)CC3)ccc2c1` is 279 to 280 °C.
Regarding `Clc1ccc(CN2CCN(c3cnc4ccccc4n3)CC2)cc1` [Compound 3], the results for the Ki on D2 receptors and with D4 receptors were over 4000 nM and 11 nM, respectively.
On to `Br.Cc1ccc2c(C)cc(N3CCN(Cc4ccc(Cl)cc4)CC3)nc2c1`, for which the melting point was 295 to 296 °C.
Same read-out and setting: the figure for `Br.Cc1cc(N2CCN(Cc3ccc(Cl)cc3)CC2)nc2ccccc12` is 215 to 217 °C; for `Fc1ccc(CN2CCN(c3cc(F)c4ccccc4n3)CC2)cc1.O=C(O)C(=O)O` it is 191 to 193 °C.
In turn, `Br.Clc1ccc(CN2CCN(c3ccc4ccccc4n3)CC2)cc1` yielded a melting point of 268 to 271 °C.
As to `CC(C)(C)c1ccc(CN2CCN(c3ccc4ccccc4n3)CC2)cc1.Cl`, the melting point fell in the range of 285 to 287 °C.
Still for that read-out and setting: as for `Clc1ccc(CN2CCN(c3ncc4ccccc4n3)CC2)cc1.O=C(O)C(=O)O`, the figure is 207 to 209 °C; as for `Br.Fc1cccc(CN2CCN(c3ccc4ccccc4c3)CC2)c1`, 253 to 255 °C.
